Like-named read-outs stand apart in the source and are kept apart here.
Experiments:
[1] = background statement; cited from earlier work
[2] = test system: pSer473 of PKB/Akt in SKOV3 cells; experiment: In-Cell Western cellular PI3K signaling, pSer473 of PKB/Akt in SKOV3 cells; type: cell-based; details: Homo sapiens
Description: Protein phosphorylation was detected as follows: pSer473 of PKB/Akt with rabbit polyclonal antibody from Cell Signaling Technology (CST) (#4058) by In-Cell Western assays, where 1.2×10^4 SKOV3 cells/well in 96-well plates were plated (Cell Carrier, PerkinElmer) for 24 hours (37° C., 5% CO2), as described in Ref.^21.

[3] = Intrinsic reactivity of the inhibitors with βME measured with HPLC; type: physicochemical; details: 1 mM inhibitor + 600 mM βME, n = 3, mean
Text: E˜I→EI • ii) off-target reactions with ubiquitous sulfhydryls (S) and other nucleophils present in physiologic environments such as cells and body fluids are driven by the intrinsic reactivity of the warhead that is defined by Kchem driving the conversion of S and I to form the sulfhydryl-adduct (SI) [table]

[4] = background statement; cited from earlier work; remark: listed apart in the source
p110α (PI3Kα) = p110α (PI3Kα) (Homo sapiens, UniProt P42336); experiment: LanthaScreen determination of kinetic constants (kinact, Ki) for p110α; type: binding; details: for Ki: dissociation constant of the first reversible binding, mean of 3; for kinact: read-out: kinact PI3Kα;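 for all read-outs here: covalent inhibition constants for p110α come from LanthaScreen data, fitted globally by numerical integration in KinTek Global Kinetic Explorer software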
p110α (PI3Kα), sequence (P42336 whole entry): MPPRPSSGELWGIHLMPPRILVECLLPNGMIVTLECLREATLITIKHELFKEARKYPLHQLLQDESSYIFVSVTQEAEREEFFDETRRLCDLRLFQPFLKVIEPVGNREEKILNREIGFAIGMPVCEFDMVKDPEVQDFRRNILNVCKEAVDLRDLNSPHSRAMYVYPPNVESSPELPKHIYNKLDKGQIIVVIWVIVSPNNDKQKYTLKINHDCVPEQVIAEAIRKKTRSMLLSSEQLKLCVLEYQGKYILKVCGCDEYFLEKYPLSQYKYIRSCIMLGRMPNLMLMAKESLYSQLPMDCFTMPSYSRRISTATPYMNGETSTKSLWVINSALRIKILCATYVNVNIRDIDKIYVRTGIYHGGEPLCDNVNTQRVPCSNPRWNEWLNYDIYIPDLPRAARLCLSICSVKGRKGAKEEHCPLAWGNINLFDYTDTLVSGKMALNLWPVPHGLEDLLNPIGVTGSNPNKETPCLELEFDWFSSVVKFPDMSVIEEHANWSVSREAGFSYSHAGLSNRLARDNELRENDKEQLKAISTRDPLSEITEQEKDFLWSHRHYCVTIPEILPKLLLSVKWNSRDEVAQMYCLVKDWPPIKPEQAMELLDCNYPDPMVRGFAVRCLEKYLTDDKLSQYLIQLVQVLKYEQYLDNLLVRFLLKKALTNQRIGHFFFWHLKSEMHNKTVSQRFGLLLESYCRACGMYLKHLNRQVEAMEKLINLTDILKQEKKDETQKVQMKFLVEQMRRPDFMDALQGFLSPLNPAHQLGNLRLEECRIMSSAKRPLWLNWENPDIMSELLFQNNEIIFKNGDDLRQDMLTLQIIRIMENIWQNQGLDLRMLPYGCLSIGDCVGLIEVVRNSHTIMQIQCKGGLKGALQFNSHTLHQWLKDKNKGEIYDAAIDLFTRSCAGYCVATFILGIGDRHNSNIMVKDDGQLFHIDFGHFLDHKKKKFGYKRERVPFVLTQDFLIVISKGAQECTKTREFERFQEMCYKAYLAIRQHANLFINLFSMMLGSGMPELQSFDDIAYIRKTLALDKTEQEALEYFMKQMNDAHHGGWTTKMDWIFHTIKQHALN
p110α (PI3Kα), sequence (P27986 whole entry partner): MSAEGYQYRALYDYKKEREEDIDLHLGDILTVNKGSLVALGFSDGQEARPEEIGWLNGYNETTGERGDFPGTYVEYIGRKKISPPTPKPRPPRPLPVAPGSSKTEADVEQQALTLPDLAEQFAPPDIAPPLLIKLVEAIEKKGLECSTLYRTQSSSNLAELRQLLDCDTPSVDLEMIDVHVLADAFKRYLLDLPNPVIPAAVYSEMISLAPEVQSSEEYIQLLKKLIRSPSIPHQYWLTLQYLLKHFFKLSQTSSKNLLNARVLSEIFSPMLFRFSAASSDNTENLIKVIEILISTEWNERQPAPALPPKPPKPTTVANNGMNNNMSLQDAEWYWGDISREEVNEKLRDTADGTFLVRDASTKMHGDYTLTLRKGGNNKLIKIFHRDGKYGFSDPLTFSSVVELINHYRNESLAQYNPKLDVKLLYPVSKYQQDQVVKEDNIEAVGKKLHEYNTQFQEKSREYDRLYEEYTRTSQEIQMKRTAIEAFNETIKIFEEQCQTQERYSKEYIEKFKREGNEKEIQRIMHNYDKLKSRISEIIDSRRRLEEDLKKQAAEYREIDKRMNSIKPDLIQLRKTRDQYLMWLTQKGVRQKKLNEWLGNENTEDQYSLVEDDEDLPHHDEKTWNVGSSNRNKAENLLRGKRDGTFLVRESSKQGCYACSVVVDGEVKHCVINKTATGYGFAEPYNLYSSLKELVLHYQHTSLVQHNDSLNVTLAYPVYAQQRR
Description: Apparent dissociation constants of compounds [Ki(app)] for p110α were determined by LanthaScreen Technology (Life Technologies), as described in Ref.^21.
Maximum potential rate of covalent bond formation (Kinact) and dissociation constant of the first reversible binding (Ki) of compounds for p110α were determined by LanthaScreen Technology (Life Technologies). The calculation of kinetic parameters was carried out through global fitting for numerical integration by using KinTek Global Kinetic Explorer modelling software^22-27.

[5] = SK-OV-3, SKOV3 cells, mean of 2 or 3 independent measurements, read-out: IC50 pPKB (S473) SKOV3
[6] = SK-OV-3, read-out: IC50 pPKB (S473) SKOV3
[7] = mean of 3 independent measurements, global fitting with KinTek

| Compound | metabolic stability [1] | IC50 [2, 5] [nM] | kchem [3] [M⁻¹ s⁻¹] | aqueous solubility [4] | kinact/KI (p110α (PI3Kα)) [M⁻¹ s⁻¹] | Ki (p110α (PI3Kα)) [nM] | kinact (p110α (PI3Kα)) [s⁻¹] | IC50 [2, 6] [nM] | kinact/KI (p110α (PI3Kα); PI3Kα, read-out: kinact/Ki) [M⁻¹ s⁻¹] | kinact (p110α (PI3Kα); [7]) [s⁻¹] |
| --- | --- | --- | --- | --- | --- | --- | --- | --- | --- | --- |
| CC(C)=CC(=O)CCC(=O)N1CCN(Cc2cc3nc(-c4cccc5[nH]ncc45)nc(N4CCOCC4)c3s2)CC1 [CNX-1351, 1-[4-[[2-(1H-indazol-4-yl)-4-(4-morpholinyl)thieno[3,2-d]pyrimidin-6-yl]methyl]-1-piperazinyl]-6-methyl-5-heptene-1,4-dione, reference compound] | metabolic instability | 164 | 0.000222 | low |  |  |  |  |  |  |
| C=CC(=O)N1CC[C@@H](C(=O)NCC(=O)N2CCN(c3nc(-c4cnc(N)nc4C(F)F)nc(N4CCOCC4)n3)CC2)C1 [Compound 25, (R)-1-acryloyl-N-(2-(4-(4-(2-amino-4-(difluoromethyl)pyrimidin-5-yl)-6-morpholino-1,3,5-triazin-2-yl)piperazin-1-yl)-2-oxoethyl)pyrrolidine-3-carboxamide] |  |  | 0.00062 |  | 961000 | 5.36 | 0.00514 | 42 |  |  |
| C=CC(=O)N1CCC[C@@H](C(=O)NCC(=O)N2CCN(c3nc(-c4cnc(N)nc4C(F)F)nc(N4CCOCC4)n3)CC2)C1 [Compound 16, (R)-1-acryloyl-N-(2-(4-(4-(2-amino-4-(difluoromethyl)pyrimidin-5-yl)-6-morpholino-1,3,5-triazin-2-yl)piperazin-1-yl)-2-oxoethyl)piperidine-3-carboxamide] |  | 27.5 | 0.00076 |  |  | 3.89 |  |  | 914000 | 0.00356 |
| C=CC(=O)N1CC(C(=O)N(C)CC(=O)N2CCN(c3nc(-c4cnc(N)nc4C(F)F)nc(N4CCOCC4)n3)CC2)C1 [Compound 33, 1-acryloyl-N-(2-(4-(4-(2-amino-4-(difluoromethyl)pyrimidin-5-yl)-6-morpholino-1,3,5-triazin-2-yl)piperazin-1-yl)-2-oxoethyl)-N-methylazetidine-3-carboxamide] |  |  | 0.00581 |  | 1.17e+06 | 6.43 | 0.00757 | 55 |  |  |
| C=CC(=O)N1CCC[C@H]1C(=O)NCC(=O)N1CCN(c2nc(-c3cnc(N)nc3C(F)F)nc(N3CCOCC3)n2)CC1 [Compound 28, (S)-1-acryloyl-N-(2-(4-(4-(2-amino-4-(difluoromethyl)pyrimidin-5-yl)-6-morpholino-1,3,5-triazin-2-yl)piperazin-1-yl)-2-oxoethyl)pyrrolidine-2-carboxamide] |  | 301 | 0.00655 |  |  | 6.32 |  |  | 44500 | 0.000281 |
| C=CC(=O)N1CCCC[C@@H]1C(=O)N(C)CC(=O)N1CCN(c2nc(-c3cnc(N)nc3C(F)F)nc(N3CCOCC3)n2)CC1 [Compound 23, (R)-1-acryloyl-N-(2-(4-(4-(2-amino-4-(difluoromethyl)pyrimidin-5-yl)-6-morpholino-1,3,5-triazin-2-yl)piperazin-1-yl)-2-oxoethyl)-N-methylpiperidine-2-carboxamide] |  | 60.5 | 0.001 |  |  | 8.47 |  |  | 27200 | 0.000231 |
| C=CC(=O)N1CC[C@H](C(=O)N(C)CC(=O)N2CCN(c3nc(-c4cnc(N)nc4C(F)F)nc(N4CCOCC4)n3)CC2)C1 [Compound 26, (S)-1-acryloyl-N-(2-(4-(4-(2-amino-4-(difluoromethyl)pyrimidin-5-yl)-6-morpholino-1,3,5-triazin-2-yl)piperazin-1-yl)-2-oxoethyl)-N-methylpyrrolidine-3-carboxamide] |  | 227 | 0.0005 |  |  | 5.28 |  |  | 150000 | 0.000789 |

Source: patent US20240208957A1, “TRIAZINE DERIVATIVE AS REVERSIBLE AND IRREVERSIBLE COVALENT INHIBITORS OF PI3K” (UNIVERSITÄT BASEL, priority 2021, published 2024)
